Data reported in the supplement of paper PMC10331698.
± gives the standard deviation of the averaged measurements.

Columns and labels:
Experiment in all cases: level (log10 ratio to DMSO vehicle control); higher = higher biomarker level / cell amount than vehicle control
Settings in all cases: in DMSO
[1] = compound: C=CC(=O)OCC(F)(F)C(F)(F)C(F)(F)C(F)(F)C(F)(F)C(F)(F)C(F)(F)F [1H,1H-Perfluorooctyl acrylate]
Procedure: (§1)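 BioMAP Diversity Plus panel of 12 human primary cell co-culture systems (3C, 4H, LPS, SAg, BT, BF4T, BE3C, CASM3C, HDF3CGF, KF3CT, MyoF, Mphg). Compounds were added 1 h before stimulation and left for 24 h (MyoF 48 h; BT 72 h for soluble read-outs or 6 d for IgG). Biomarkers were read by ELISA, cytotoxicity by SRB, PBMC viability and proliferation by Alamar Blue. Each well value was divided by the mean of 8 DMSO control wells on the same plate and log10 transformed; duplicate blinded samples were tested at 4 concentrations.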

[2] = compound: O=C(O)C(F)(F)C(F)(F)C(F)(F)C(F)(F)C(F)(F)C(F)(F)C(F)(F)C(F)F [9-H-Perfluorononanoic acid]
Procedure: as §1

[3] = compound: FC(F)(F)C(F)(F)C(F)(F)C(F)(F)C(F)(F)C(F)(F)C(F)(F)C(F)(F)CCS [2-(Perfluorooctyl)ethanthiol]
Procedure: as §1

[4] = compound: C=C(C)C(=O)OCCC(F)(F)C(F)(F)C(F)(F)C(F)(F)C(F)(C(F)(F)F)C(F)(F)F [(Perfluoro-5-methylhexyl)ethyl 2-methylprop-2-enoate]
Procedure: as §1

[5] = compound: CCN(CCO)S(=O)(=O)C(F)(F)C(F)(F)C(F)(F)C(F)(F)C(F)(F)C(F)(F)C(F)(F)C(F)(F)F [N-Ethyl-N-(2-hydroxyethyl)perfluorooctanesulfonamide]
Procedure: as §1

[6] = compound: O=C(O)C(F)(F)OC(F)(F)C(F)(F)OC(F)(F)C(=O)O [Perfluoro-3,6-dioxaoctane-1,8-dioic acid]
Procedure: as §1

[7] = compound: FC(F)(F)C(F)(C(F)(F)F)C(F)(F)C(F)(F)CC1CO1 [3-(Perfluoro-3-methylbutyl)-1,2-propenoxide]
Procedure: as §1

[8] = compound: O=C(O)C(F)(F)C(F)(F)C(F)F [4H-Perfluorobutanoic acid]
Procedure: as §1

Test System | level (log10) ([1]; 6700 nM) | level (log10) ([1]; 20000 nM) | level (log10) ([1]; 60000 nM) | level (log10) ([2]; 6700 nM) | level (log10) ([2]; 20000 nM) | level (log10) ([2]; 60000 nM) | level (log10) ([3]; 6700 nM) | level (log10) ([3]; 20000 nM) | level (log10) ([4]; 6700 nM) | level (log10) ([4]; 20000 nM) | level (log10) ([5]; 6700 nM) | level (log10) ([5]; 20000 nM) | level (log10) ([6]; 6700 nM) | level (log10) ([6]; 20000 nM) | level (log10) ([6]; 60000 nM) | level (log10) ([7]; 6700 nM) | level (log10) ([7]; 20000 nM) | level (log10) ([8]; 6700 nM) | level (log10) ([8]; 20000 nM) | level (log10) ([8]; 60000 nM)
LPS:sPGE2 | -0.045 ± 0.017 | -0.0805 ± 0.0035 | -0.109 ± 0.027 | 0.005 ± 0.0057 | -0.0205 ± 0.0092 | -0.096 ± 0.0042 | -0.017 ± 0.025 | -0.022 ± 0.011 | -0.038 ± 0.05 | -0.016 ± 0.064 | -0.023 ± 0.023 | 0.07 ± 0.0042 | -0.0045 ± 0.013 | -0.006 ± 0.011 | 0.0045 ± 0.0078 | -0.012 ± 0.023 | -0.0095 ± 0.054 | 0.0025 ± 0.054 | -0.111 ± 0.054 | -0.052 ± 0.013
LPS:sTNF-alpha | 0.0115 ± 0.00071 | 0.0285 ± 0.011 | 0.021 ± 0.013 | -0.0145 ± 0.012 | -0.0055 ± 0.016 | -0.0115 ± 0.019 | 0.052 ± 0.013 | 0.098 ± 0.0071 | 0.0265 ± 0.04 | 0.0345 ± 0.063 | -0.006 ± 0.0028 | -0.005 ± 0.0085 | -0.012 ± 0.057 | 0.0145 ± 0.063 | 0.0445 ± 0.059 | 0.0005 ± 0.0078 | -0.0025 ± 0.005 | 0.0095 ± 0.043 | 0.0095 ± 0.023 | 0.004 ± 0.031
SAg:CCL2/MCP-1 | -0.014 ± 0.0071 | -0.025 ± 0.0071 | 0.001 ± 0.024 | -0.009 ± 0.014 | -0.022 ± 0.0014 | 0.0245 ± 0.04 | -0.0085 ± 0.019 | 0.017 ± 0.0028 | -0.014 ± 0.018 | 0.0065 ± 0.033 | -0.0055 ± 0.005 | -0.091 ± 0.023 | 0.0065 ± 0.0035 | -0.0145 ± 0.00071 | -0.0095 ± 0.0064 | -0.0225 ± 0.039 | 0.004 ± 0.0085 | -0.011 ± 0.038 | -0.0085 ± 0.04 | -0.0065 ± 0.081
SAg:CD38 | -0.016 ± 0.018 | -0.009 ± 0.016 | -0.02 ± 0.014 | 0.0255 ± 0.039 | -0.015 ± 0.0085 | -0.016 ± 0.011 | -0.036 ± 0.057 | -0.0245 ± 0.042 | -0.011 ± 0.016 | -0.0055 ± 0.015 | -0.027 ± 0.017 | -0.0955 ± 0.012 | -0.001 | 0.0015 ± 0.0021 | 0.0055 ± 0.0021 | -0.0005 ± 0.0021 | 0.015 ± 0.018 | 0.008 ± 0.028 | 0.0195 ± 0.0021 | 0.017 ± 0.021
SAg:CD40 | -0.005 | -0.001 ± 0.0028 | -0.02 ± 0.035 | -0.0265 ± 0.012 | -0.0275 ± 0.016 | -0.059 ± 0.02 | 0.0105 ± 0.011 | 0.006 ± 0.011 | 0 ± 0.0071 | -0.0275 ± 0.028 | 0 ± 0.028 | -0.052 ± 0.023 | 0.015 ± 0.0028 | 0.01 ± 0.0057 | -0.008 ± 0.013 | -0.018 ± 0.025 | -0.0205 ± 0.039 | 0 ± 0.0028 | -0.056 ± 0.045 | -0.028 ± 0.044
SAg:CD62E/E-Selectin | -0.0035 ± 0.0064 | -0.036 ± 0.0042 | -0.0335 ± 0.016 | -0.015 ± 0.013 | -0.0075 ± 0.013 | 0.065 ± 0.031 | -0.0115 ± 0.0064 | -0.0015 ± 0.022 | 0.0215 ± 0.011 | 0.007 ± 0.014 | 0.0625 ± 0.013 | 0.079 ± 0.016 | 0.007 ± 0.0085 | 0.011 ± 0.0028 | 0.011 ± 0.021 | -0.0195 ± 0.019 | -0.012 | -0.0205 ± 0.018 | -0.002 ± 0.0014 | 0.0175 ± 0.0078
SAg:CD69 | -0.0205 ± 0.021 | -0.024 ± 0.011 | -0.035 ± 0.018 | -0.0335 ± 0.025 | -0.034 ± 0.0085 | -0.0245 ± 0.00071 | -0.0165 ± 0.0092 | -0.035 ± 0.0014 | -0.0095 ± 0.015 | -0.0335 ± 0.033 | -0.043 ± 0.016 | -0.085 ± 0.04 | 0.0045 ± 0.0021 | 0.007 ± 0.0057 | 0 ± 0.0014 | -0.0125 ± 0.015 | -0.006 ± 0.059 | -0.0145 ± 0.015 | -0.0165 ± 0.015 | 0.005 ± 0.027
SAg:CXCL8/IL-8 | -0.0135 ± 0.053 | 0.001 ± 0.052 | 0.003 ± 0.024 | 0.01 ± 0.018 | 0.0005 ± 0.0064 | 0.0715 ± 0.013 | -0.0215 ± 0.032 | 0.027 ± 0.082 | 0.0115 ± 0.012 | 0.0405 ± 0.079 | 0.0095 ± 0.025 | -0.167 ± 0.03 | -0.006 ± 0.0085 | -0.0015 ± 0.0064 | 0.0155 ± 0.035 | 0.0035 ± 0.0021 | 0.013 ± 0.041 | -0.0325 ± 0.03 | -0.0065 ± 0.022 | 0.025 ± 0.098
SAg:CXCL9/MIG | 0.003 ± 0.0099 | -0.009 ± 0.0014 | 0.0015 ± 0.012 | -0.01 ± 0.017 | -0.0055 ± 0.015 | 0.0055 ± 0.0064 | 0.0015 ± 0.016 | 0.01 ± 0.0042 | 0.002 ± 0.0085 | 0.015 ± 0.0042 | -0.0135 ± 0.005 | -0.0075 ± 0.013 | -0.0065 ± 0.005 | 0.004 ± 0.0057 | -0.001 ± 0.013 | -0.0255 ± 0.005 | -0.002 ± 0.018 | -0.0115 ± 0.00071 | -0.0035 ± 0.0078 | 0.0095 ± 0.016
SAg:PBMC Cytotoxicity | -0.004 ± 0.017 | 0.0125 ± 0.053 | -0.0535 ± 0.071 | 0.007 ± 0.023 | 0.045 ± 0.0099 | 0.0765 ± 0.013 | -0.025 ± 0.023 | -0.0015 ± 0.0035 | -0.0255 ± 0.018 | 0.0155 ± 0.013 | -0.039 ± 0.052 | -0.0865 ± 0.042 | 0.0115 ± 0.023 | 0.012 ± 0.0099 | 0.0115 ± 0.0078 | 0.008 ± 0.0071 | 0.016 ± 0.023 | -0.0205 ± 0.015 | 0.002 ± 0.0042 | 0.017 ± 0.033
SAg:Proliferation | 0.004 ± 0.0042 | -0.045 ± 0.047 | -0.128 ± 0.038 | 0.052 ± 0.065 | 0.0735 ± 0.037 | 0.048 ± 0.095 | 0.056 ± 0.016 | 0.0225 ± 0.03 | 0.011 ± 0.0085 | 0.009 ± 0.018 | -0.098 ± 0.0057 | -0.335 ± 0.098 | -0.017 ± 0.05 | -0.011 ± 0.035 | -0.0085 ± 0.021 | 0.028 ± 0.017 | 0.007 ± 0.12 | -0.0545 ± 0.026 | -0.0325 ± 0.025 | -0.0145 ± 0.03
SAg:SRB | -0.0005 ± 0.0035 | -0.002 ± 0.0028 | 0.0075 ± 0.0021 | -0.002 ± 0.025 | -0.003 ± 0.013 | -0.036 ± 0.0071 | 0.002 ± 0.0014 | -0.004 ± 0.0014 | -0.001 ± 0.0042 | -0.0105 ± 0.0078 | -0.046 ± 0.0057 | -0.118 ± 0.024 | 0.007 ± 0.013 | 0.0005 ± 0.0064 | 0.0045 ± 0.00071 | -0.006 ± 0.023 | -0.0025 ± 0.0021 | -0.0055 ± 0.0078 | -0.0145 ± 0.0021 | 0 ± 0.0028
